Experimental data reported in patent US20070134261A1, “Effectors of innate immunity” (priority 2001, published 2007).
Residues, ends and D or L forms follow the SMILES beside them.

Test system: A549 human epithelial cell line
Assay: Polynucleotide array (Human Operon) of A549 cells incubated with E. coli O111:B4 LPS with or without peptide
Format: cell-based
Conditions: 50 μg/ml, 4 h
Description: The A549 human epithelial cell line was maintained in DMEM (Gibco) supplemented with 10% fetal bovine serum (FBS, Medicorp). […] Total RNA was isolated using RNAqueous (Ambion, Austin, Tex.). […] DNA contamination was removed with DNA-free kit, Ambion).
A “homemade” program was used to remove background. The program calculates the bottom 10% intensity for each subgrid and subtracts this for each grid.
Peptide (50 μg/ml) and LPS (0.1 μg/ml) or LPS alone was incubated with the A549 cells for 4 h and the RNA was isolated. Five μg total RNA was used to make Cy3/Cy5 labeled cDNA probes and hybridized onto Human Operon arrays (PRHU04). The intensity of unstimulated cells is shown in the third column of Table 1. The “Ratio: LPS/control” column refers to the intensity of polynucleotide expression in LPS simulated cells divided by in the intensity of unstimulated cells. The “Ratio: LPS+ID 27/control” column refers to the intensity of polynucleotide expression in cells stimulated with LPS and peptide divided by unstimulated cells.
Peptide and LPS or LPS alone was incubated with the A549 cells for 4 h and the RNA was isolated. 5 μg total RNA was used to make Cy3/Cy5 labeled cDNA probes and hybridized onto Human Operon arrays (PRHU04). The intensity of unstimulated cells is shown in the third column of Table 2. The “Ratio: LPS/control” column refers to the intensity of polynucleotide expression in LPS-simulated cells divided by in the intensity of unstimulated cells. The other columns refer to the intensity of polynucleotide expression in cells stimulated with LPS and peptide divided by unstimulated cells.

[1] = AB007856 FEM-1-like death receptor binding protein

CSCC[C@H](NC(=O)[C@H](CO)NC(=O)[C@@H](NC(=O)[C@H](CCCCN)NC(=O)[C@H](Cc1ccccc1)NC(=O)[C@H](CS)NC(=O)[C@H](CO)NC(=O)[C@H](CCCNC(=N)N)NC(=O)[C@@H](N)CCCCN)C(C)C)C(=O)N[C@@H](CCCNC(=N)N)C(=O)NCC(=O)N[C@H](C(=O)N[C@@H](CO)C(=O)N[C@@H](CCCNC(=N)N)C(=O)N[C@@H](CCCNC(=N)N)C(=O)N[C@@H](CCCNC(=N)N)C(=O)N[C@@H](CS)C(=O)N[C@@H](CCCCN)C(=O)O)C(C)C [SEQ ID NO: 27] (H-KRSCFKVSMRGVSRRRCK-OH; N-terminus and C-terminus assumed)
Ratio: LPS + ID 27/control (AB007854 growth arrest-specific 7): 2.2 | Ratio: LPS + ID 27/control [1]: 0.6 | Ratio: LPS + ID/Ctrl [1]: 0.62 | Ratio: LPS + ID/Ctrl (AB007896 putative L-type neutral amino acid transporter): 1.82 | Ratio: LPS + ID/Ctrl (AB010894 BAI1-associated protein): 1.38 | Ratio: LPS + ID 27/control (AB014569 KIAA0669 gene product): 0.2 | Ratio: LPS + ID/Ctrl (AB023198 KIAA0981 protein): 0.43 | Ratio: LPS + ID/Ctrl (AB037722 Unknown): 0.30 | Ratio: LPS + ID 27/control (AB040057 serine/threonine protein kinase MASK): 15.8 | Ratio: LPS + ID/Ctrl (AC004849 Unknown): 0.07 | Ratio: LPS + ID 27/control (AF035309 proteasome 26S subunit ATPase 5): 1.3 | Ratio: LPS + ID/Ctrl (AF095687 brain and nasopharyngeal carcinoma susceptibility protein): 0.48 | Ratio: LPS + ID 27/control (AF112219 esterase D/formylglutathione hydrolase): 1.1 | Ratio: LPS + ID 27/control (AF131838 Unknown): 1.4 | Ratio: LPS + ID 27/control (AF151047 hypothetical protein): 1.0 | Ratio: LPS + ID 27/control (AF189009 ubiquilin 2): 1.3 | Ratio: LPS + ID 27/control (AJ001403 mucin 5 subtype B tracheobronchial): 15.9 | Ratio: LPS + ID 27/control (AK000087 hypothetical protein): 1.0 | Ratio: LPS + ID 27/control (AK000264 Unknown): 0.6 | Ratio: LPS + ID/Ctrl (AK000353 cytosolic ovarian carcinoma ag 1): 1.02 | Ratio: LPS + ID 27/control (AK000353 cytosolic ovarian carcinoma antigen 1): 1.0 | Ratio: LPS + ID 27/control (AK000366 hypothetical protein): 1.0 | Ratio: LPS + ID 27/control (AK000562 hypothetical protein): 0.6 | Ratio: LPS + ID 27/control (AK000869 hypothetical protein): 2.3 | Ratio: LPS + ID/Ctrl (AK000869 hypothetical protein): 2.34 | Ratio: LPS + ID/Ctrl (AK001239 hypothetical protein): 1.27 | Ratio: LPS + ID/Ctrl (AK001440 hypothetical protein): 0.43 | Ratio: LPS + ID 27/control (AK001569 hypothetical protein): 1.2 | Ratio: LPS + ID 27/control (AK001589 hypothetical protein): 1.3 | Ratio: LPS + ID/Ctrl (AK001589 hypothetical protein): 1.26 | Ratio: LPS + ID/Ctrl (AK001904 hypothetical protein): 5.93 | Ratio: LPS + ID 27/control (AL031983 Unknown): 5.1 | Ratio: LPS + ID/Ctrl (AL031983 Unknown): 5.06 | Ratio: LPS + ID 27/control (AL050337 interferon gamma receptor 1): 1.0 | Ratio: LPS + ID 27/control (AL050348 Unknown): 1.7 | Ratio: LPS + ID 27/control (AL096739 Unknown): 0.5 | Ratio: LPS + ID/Ctrl (AL122111 hypothetical protein): 0.21 | Ratio: LPS + ID 27/control (AL137376 Unknown): 0.6 | Ratio: LPS + ID/Ctrl (AL137376 Unknown): 0.64 | Ratio: LPS + ID 27/control (AL137614 hypothetical protein): 1.0 | Ratio: LPS + ID 27/control (D14043 CD164 antigen_sialomucin): 1.0 | Ratio: LPS + ID 27/control (D14539 myeloid/lymphoid or mixed-lineage leukemia translocated to 1): 3.1 | Ratio: LPS + ID 27/control (D42085 KIAA0095 gene product): 1.2 | Ratio: LPS + ID 27/control (D87451 ring finger protein 10): 2.1 | Ratio: LPS + ID/Ctrl (D87451 ring finger protein): 2.1 | Ratio: LPS + ID 27/control (J03925 integrin_alpha M): 4.2 | Ratio: LPS + ID 27/control (J04058 electron-transfer-flavoprotein alpha polypeptide): 1.2 | Ratio: LPS + ID 27/control (J04513 fibroblast growth factor 2): 0.9 | Ratio: LPS + ID/Ctrl (J05068 transcobalamin 1): 1.78 | Ratio: LPS + ID 27/control (K02581 thymidine kinase 1 soluble): 3.5 | Ratio: LPS + ID 27/control (L04510 ADP-ribosylation factor): 1.4 | Ratio: LPS + ID/Ctrl (L04510 ADP-ribosylation factor): 1.4 | Ratio: LPS + ID/Ctrl (L19185 thioredoxin-dependent peroxide reductase 1): 0.18 | Ratio: LPS + ID 27/control (L25931 lamin B receptor): 0.7 | Ratio: LPS + ID 27/control (L42243 interferon receptor 2): 5.2 | Ratio: LPS + ID 27/control (M23379 RAS p21 protein activator): 2.8 | Ratio: LPS + ID 27/control (M32315 tumor necrosis factor receptor superfamily member 1B): 0.4 | Ratio: LPS + ID 27/control (M54915 pim-1 oncogene): 0.6 | Ratio: LPS + ID/Ctrl (M54915 pim-1 oncogene): 0.63 | Ratio: LPS + ID 27/control (M57230 interleukin 6 signal transducer): 1.0 | Ratio: LPS + ID/Ctrl (M95678 phospholipase C beta 2): 2.38 | Ratio: LPS + ID/Ctrl (NM_001148 ankyrin 2_neuronal): 0.82 | Ratio: LPS + ID 27/control (NM_001663 ADP-ribosylation factor 6): 1.7 | Ratio: LPS + ID 27/control (NM_001940 dentatorubral-pallidoluysian atrophy): 1.2 | Ratio: LPS + ID 27/control (NM_002309 leukemia inhibitory factor): 1.9 | Ratio: LPS + ID 27/control (NM_004862 LPS-induced TNF-alpha factor): 1.1 | Ratio: LPS + ID 27/control (NM_006092 caspase recruitment domain 4): 0.5 | Ratio: LPS + ID 27/control (NM_006325 RAN member RAS oncogene family): 1.4 | Ratio: LPS + ID 27/control (NM_013241 FH1/FH2 domain-containing protein): 0.6 | Ratio: LPS + ID 27/control (NM_013400 replication initiation region protein): 2.0 | Ratio: LPS + ID 27/control (NM_016216 RNA lariat debranching enzyme): 10.9 | Ratio: LPS + ID 27/control (NM_016237 anaphase-promoting complex subunit 5): 0.9 | Ratio: LPS + ID/Ctrl (NM_016382 NK cell activation inducing ligand NAIL): 0.81 | Ratio: LPS + ID 27/control (U19796 melanoma-associated antigen): 0.6 | Ratio: LPS + ID 27/control (U26648 syntaxin 5A): 1.4 | Ratio: LPS + ID 27/control (U34252 aldehyde dehydrogenase 9): 1.2 | Ratio: LPS + ID 27/control (U43083 guanine cription factor 1): 1.6 | Ratio: LPS + ID/Ctrl (U52522 partner of RAC1): 1.35 | Ratio: LPS + ID 27/control (U52960 SRB7 homolog): 0.8 | Ratio: LPS + ID 27/control (U60205 sterol-C4-methyl oxidase-like): 0.8 | Ratio: LPS + ID 27/control (U78027 galactosidase_alpha): 1.1 | Ratio: LPS + ID/Ctrl (U78166 Ric like): 0.20 | Ratio: LPS + ID 27/control (U78166 Ric-like expressed in neurons): 0.2 | Ratio: LPS + ID 27/control (U91316 cytosolic acyl coenzyme A thioester hydrolase): 1.4 | Ratio: LPS + ID 27/control (U94831 transmembrane 9 superfamily member 1): 1.5 | Ratio: LPS + ID/Ctrl (X03066 MHC class II DO beta): 4.90 | Ratio: LPS + ID/Ctrl (X06614 retinoic acid receptor_alpha): 0.77 | Ratio: LPS + ID/Ctrl (X07173 inter-alpha inhibitor H2): 0.44 | Ratio: LPS + ID 27/control (X13334 CD14 antigen): 1.1 | Ratio: LPS + ID/Ctrl (X16940 smooth muscle enteric actin γ2): 3.24 | Ratio: LPS + ID 27/control (X51688 cyclin A2): 1.0 | Ratio: LPS + ID 27/control (X56777 zona pellucida glycoprotein 3A): 1.4 | Ratio: LPS + ID 27/control (X70394 zinc finger protein 146): 1.7 | Ratio: LPS + ID 27/control (X76104 death-associated protein kinase 1): 1.8 | Ratio: LPS + ID 27/control (X76785 integration site for Epstein-Barr virus): 1.9 | Ratio: LPS + ID 27/control (X80692 mitogen-activated protein kinase 6): 1.3 | Ratio: LPS + ID 27/control (X85750 monocyte to macrophage differentiation-associated): 1.1 | Ratio: LPS + ID 27/control (X92896 Unknown): 1.5 | Ratio: LPS + ID 27/control (X92972 protein phosphatase 6 catalytic subunit): 1.1 | Ratio: LPS + ID 27/control (Z99756 Unknown): 14.0
